Laboratory results as given in the NIST ThermoML archive (doi:10.1016/j.fluid.2017.06.019).

Conditions: Coaxial cylinder method

CCC [propane]
thermal conductivity [W/m/K]
Conditions	367.32 K	368.46 K
2968 kPa, Gas	–	0.03214
2972 kPa, Gas	–	0.03214
2978 kPa, Gas	–	0.03213
3000 kPa, Gas	–	0.03223
3030 kPa, Gas	–	0.03238
3100 kPa, Gas	–	0.03275
3150 kPa, Gas	–	0.03302
3200 kPa, Gas	–	0.03331
3250 kPa, Gas	–	0.0336
3300 kPa, Gas	–	0.03395
3350 kPa, Gas	–	0.03428
3400 kPa, Gas	–	0.03471
3500 kPa, Gas	–	0.03552
3575 kPa, Gas	–	0.03626
3650 kPa, Gas	–	0.03704
3700 kPa, Gas	–	0.03759
3720 kPa, Gas	–	0.03785
3730 kPa, Gas	–	0.03799
3740 kPa, Gas	–	0.0381
3750 kPa, Gas	–	0.03825
3755 kPa, Gas	–	0.03832
3765 kPa, Gas	–	0.03844
3775 kPa, Gas	–	0.03858
3785 kPa, Gas	–	0.03873
3790 kPa, Gas	–	0.03878
3800 kPa, Gas	–	0.03892
3850 kPa, Gas	–	0.03974
3900 kPa, Gas	–	0.04073
3950 kPa, Gas	–	0.04194
4000 kPa, Gas	–	0.04351
4038 kPa, Gas	–	0.04518
4060 kPa, Gas	–	0.04654
4066 kPa, Liquid	0.1808	–
4067 kPa, Liquid	0.1761	–
4068 kPa, Liquid	0.1712	–
4069 kPa, Liquid	0.1669	–
4070 kPa, Liquid	0.1627	–
4071 kPa, Liquid	0.1586	–
4072 kPa, Liquid	0.1546	–
4073 kPa, Liquid	0.1511	–
4074 kPa, Liquid	0.1475	–
4075 kPa, Liquid	0.1439	–
4076 kPa, Liquid	0.1405	–
4077 kPa, Liquid	0.1378	–
4078 kPa, Liquid	0.1345	–
4079 kPa, Liquid	0.1317	–
4080 kPa, Gas	–	0.04809
4080 kPa, Liquid	0.129	–
4081 kPa, Liquid	0.127	–
4082 kPa, Liquid	0.1249	–
4083 kPa, Liquid	0.123	–
4084 kPa, Liquid	0.121	–
4085 kPa, Liquid	0.1189	–
4086 kPa, Liquid	0.1166	–
4087 kPa, Liquid	0.115	–
4088 kPa, Liquid	0.1136	–
4089 kPa, Liquid	0.1118	–
4090 kPa, Liquid	0.1105	–
4091 kPa, Liquid	0.109	–
4092 kPa, Liquid	0.1085	–
4093 kPa, Liquid	0.1068	–
4094 kPa, Liquid	0.1051	–
4095 kPa, Liquid	0.1042	–
4096 kPa, Gas	–	0.04969
4096 kPa, Liquid	0.1034	–
4097 kPa, Liquid	0.1027	–
4098 kPa, Liquid	0.1021	–
4099 kPa, Gas	–	0.05013
4099 kPa, Liquid	0.1016	–
4100 kPa, Liquid	0.1007	–
4101 kPa, Liquid	0.09965	–
4102 kPa, Gas	–	0.0505
4102 kPa, Liquid	0.09856	–
4103 kPa, Liquid	0.09755	–
4104 kPa, Gas	–	0.05078
4104 kPa, Liquid	0.09655	–
4105 kPa, Liquid	0.09562	–
4106 kPa, Gas	–	0.05104
4106 kPa, Liquid	0.0947	–
4107 kPa, Liquid	0.0938	–
4108 kPa, Liquid	0.09296	–
4109 kPa, Liquid	0.09214	–
4110 kPa, Liquid	0.09124	–
4112 kPa, Gas	–	0.05196
4112 kPa, Liquid	0.08967	–
4114 kPa, Gas	–	0.05236
4114 kPa, Liquid	0.0892	–
4115 kPa, Gas	–	0.0525
4116 kPa, Gas	–	0.0527
4116 kPa, Liquid	0.08674	–
4117 kPa, Gas	–	0.05291
4118 kPa, Gas	–	0.05307
4118 kPa, Liquid	0.08545	–
4119 kPa, Gas	–	0.05335
4120 kPa, Gas	–	0.05349
4120 kPa, Liquid	0.08412	–
4121 kPa, Gas	–	0.05378
4122 kPa, Gas	–	0.05392
4122 kPa, Liquid	0.08294	–
4123 kPa, Gas	–	0.05418
4124 kPa, Gas	–	0.0565
4124 kPa, Liquid	0.08176	–
4125 kPa, Gas	–	0.0589
4126 kPa, Gas	–	0.06178
4126 kPa, Liquid	0.08067	–
4127 kPa, Gas	–	0.06494
4128 kPa, Gas	–	0.06863
4128 kPa, Liquid	0.07964	–
4129 kPa, Gas	–	0.07284
4130 kPa, Gas	–	0.07749
4130 kPa, Liquid	0.07867	–
4131 kPa, Gas	–	0.08276
4132 kPa, Gas	–	0.08878
4132 kPa, Liquid	0.07775	–
4133 kPa, Gas	–	0.09573
4134 kPa, Gas	–	0.1033
4134 kPa, Liquid	0.07688	–
4135 kPa, Gas	–	0.1122
4136 kPa, Gas	–	0.1221
4136 kPa, Liquid	0.07609	–
4137 kPa, Gas	–	0.1337
4138 kPa, Gas	–	0.1478
4138 kPa, Liquid	0.07523	–
4139 kPa, Gas	–	0.1619
4140 kPa, Gas	–	0.1793
4140 kPa, Liquid	0.07455	–
4141 kPa, Gas	–	0.2022
4142 kPa, Gas	–	0.214
4142 kPa, Liquid	0.0738	–
4143 kPa, Gas	–	0.2272
4144 kPa, Gas	–	0.241
4144 kPa, Liquid	0.07315	–
4145 kPa, Liquid	–	0.2612
4146 kPa, Liquid	0.0725	0.2405
4147 kPa, Liquid	–	0.2228
4148 kPa, Liquid	0.07187	0.2065
4149 kPa, Liquid	–	0.1933
4150 kPa, Liquid	0.07132	0.1809
4151 kPa, Liquid	–	0.1745
4152 kPa, Liquid	0.07076	0.1686
4153 kPa, Liquid	–	0.164
4154 kPa, Liquid	0.07028	0.1581
4155 kPa, Liquid	–	0.1533
4156 kPa, Liquid	0.06982	0.1489
4157 kPa, Liquid	–	0.1449
4158 kPa, Liquid	–	0.141
4159 kPa, Liquid	–	0.1373
4160 kPa, Liquid	0.06894	0.1338
4161 kPa, Liquid	–	0.1305
4162 kPa, Liquid	0.06852	0.1273
4163 kPa, Liquid	–	0.1243
4164 kPa, Liquid	0.06814	0.1214
4165 kPa, Liquid	–	0.12
4166 kPa, Liquid	0.06773	–
4168 kPa, Liquid	0.0674	–
4170 kPa, Liquid	0.06707	–
4172 kPa, Liquid	0.06674	–
4174 kPa, Liquid	0.06646	–
4176 kPa, Liquid	0.0662	–
4178 kPa, Liquid	0.06599	–
4180 kPa, Liquid	0.06574	–
4182 kPa, Liquid	0.06551	–
4184 kPa, Liquid	0.0653	–
4186 kPa, Liquid	0.06509	–
4188 kPa, Liquid	0.0649	–
4190 kPa, Liquid	0.06474	–
4192 kPa, Liquid	0.0647	–
4194 kPa, Liquid	0.06462	–
4196 kPa, Liquid	0.06458	–
4198 kPa, Liquid	0.06458	–
4200 kPa, Liquid	0.06456	–
4202 kPa, Liquid	0.06454	–
4204 kPa, Liquid	0.06452	–
4206 kPa, Liquid	0.0645	–
4208 kPa, Liquid	0.06448	–
4210 kPa, Liquid	0.06446	–
4212 kPa, Liquid	0.06444	–
4214 kPa, Liquid	0.06445	–
4216 kPa, Liquid	0.06443	–
4218 kPa, Liquid	0.06443	–
4220 kPa, Liquid	0.06439	–
4222 kPa, Liquid	0.06437	–
4224 kPa, Liquid	0.06435	–
4226 kPa, Liquid	0.06433	–
4228 kPa, Liquid	0.06435	–
4230 kPa, Liquid	0.06433	–
4232 kPa, Liquid	0.06431	–
4234 kPa, Liquid	0.06432	–
4236 kPa, Liquid	0.06432	–
4238 kPa, Liquid	0.0643	–
4240 kPa, Liquid	0.06428	–
4250 kPa, Liquid	0.06424	–
4260 kPa, Liquid	0.0642	–
4270 kPa, Liquid	0.06416	–
4280 kPa, Liquid	0.06413	–
4290 kPa, Liquid	0.06409	–
4300 kPa, Liquid	0.06407	–
4350 kPa, Liquid	0.06399	–
4400 kPa, Liquid	0.06399	–
4450 kPa, Liquid	0.06405	–
4500 kPa, Liquid	0.06413	–
4550 kPa, Liquid	0.06426	–
4600 kPa, Liquid	0.0644	–
4650 kPa, Liquid	0.06452	–
4700 kPa, Liquid	0.06466	–
4770 kPa, Liquid	0.06483	–
4800 kPa, Liquid	0.06498	–
4850 kPa, Liquid	0.06516	–
4900 kPa, Liquid	0.06532	–
4950 kPa, Liquid	0.06554	–
4976 kPa, Liquid	0.06564	–
5077 kPa, Liquid	0.06597	–
